Data taken from patent US10933045B2, “Intranasal compositions for treatment of neurological and neurodegenerative diseases and disorders” (priority 2014, dated 2021).
Read-outs that look alike come from different tables or passages of the source.

Assays:
[1] = assumed value from literature; cited from earlier work
sigma one receptor [2] = molecular target: T1, sigma one receptor (Rattus norvegicus, UniProt Q9R0C9); assay: Dextromethorphan binding studies with rat brain (Klein and Musacchio 1992)
T1 construct: host or cells: rat brain

sigma one receptor [3] = molecular target: T1, sigma one receptor; conditions: read-out: dissociation constant (Kd); binding studies with rat brain; cited from earlier work
acetylcholinesterase = acetylcholinesterase (Homo sapiens, UniProt P22303); conditions: estimated (Gobburu et al. 2001); cited from earlier work
[4] = cited from earlier work
[5] = Alzheimer's disease patients, 2 mg i.v. dose (Hossain et al. 2002)

T1 sequence (Q9R0C9 whole entry): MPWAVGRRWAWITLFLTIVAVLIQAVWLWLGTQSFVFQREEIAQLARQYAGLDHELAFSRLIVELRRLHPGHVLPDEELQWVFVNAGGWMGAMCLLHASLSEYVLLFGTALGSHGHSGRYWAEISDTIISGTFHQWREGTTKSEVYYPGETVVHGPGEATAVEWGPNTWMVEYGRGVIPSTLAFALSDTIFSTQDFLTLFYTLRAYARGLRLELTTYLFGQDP
acetylcholinesterase, sequence (P22303 32-614): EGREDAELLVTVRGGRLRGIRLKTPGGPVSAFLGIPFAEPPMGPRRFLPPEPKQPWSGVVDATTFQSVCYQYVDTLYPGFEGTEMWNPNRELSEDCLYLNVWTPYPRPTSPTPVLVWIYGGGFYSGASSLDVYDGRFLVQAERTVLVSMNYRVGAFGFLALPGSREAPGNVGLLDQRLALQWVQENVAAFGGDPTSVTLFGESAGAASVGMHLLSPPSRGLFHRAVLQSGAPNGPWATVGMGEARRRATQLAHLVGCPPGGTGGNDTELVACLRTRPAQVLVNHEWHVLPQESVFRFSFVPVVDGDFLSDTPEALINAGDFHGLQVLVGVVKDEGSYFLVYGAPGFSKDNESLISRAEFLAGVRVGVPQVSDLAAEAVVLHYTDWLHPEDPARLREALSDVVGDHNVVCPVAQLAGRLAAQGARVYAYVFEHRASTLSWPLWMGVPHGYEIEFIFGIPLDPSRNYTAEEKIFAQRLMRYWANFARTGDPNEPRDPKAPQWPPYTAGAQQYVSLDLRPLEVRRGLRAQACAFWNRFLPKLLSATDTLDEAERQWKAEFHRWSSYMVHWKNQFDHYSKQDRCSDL

Q: What does the source list for COc1ccc2c(c1)[C@]13CCCC[C@@H]1[C@H](C2)N(C)CC3 [dextromethorphan]?
A: systemic clearance [1]: about 23 mL/min/kg; Kd (sigma one receptor [2]): ~19.9 nM; Kd (sigma one receptor [3]): 20 nM

Q: Which “potency, times less than rivastigmine” value (acetylcholinesterase) does the source give for C[C@@H](c1cccc(O)c1)N(C)C [NAP 226-90, 3-[(1S)-1-(dimethylamino)ethyl]phenol] here?
A: The value was 10 times.

Q: For CCN(C)C(=O)Oc1cccc([C@H](C)N(C)C)c1 [rivastigmine, Rivastigmine], which “variation of intrinsic clearance (CL)” value ([4]; Alzheimer's disease patients (Hossain et al. 2002)) is on record?
A: The value was “up to 4 fold”.

Q: And the CL [4, 5]?
A: Its CL is 21.6 to 82.8 L/h.

Q: And the Vz [4, 5]?
A: Its Vz is 53.2 to 227 L.
